Data taken from patent US4374248A, “3,4-Disubstituted-1,2,5-thiadiazole-1-oxide compounds” (Bristol-Myers Company, priority 1981, dated 1983).
Read-outs that look alike come from different tables or passages of the source.

Columns and labels:
[1] = test system: Gastric Acid Output; assay: Gastric Antisecretory Activity in the Two Hour Pylorus Ligated (Shay) Rat; assay type: in vivo, rat (Male Long Evans); conditions: 2 h
Excerpt: Med. Res., 3, 86 (1975). […] One of the standard animal models for determining gastric antisecretory activity of histamine H2 -antagonists is the pylorus ligated rat.
Determination of Gastric Antisecretory Activity in the Two Hour Pylorus Ligated (Shay) Rat
The pyloric ligation procedure in the rat was designed by Shay et al., Gastroenterology, 5, 53 (1945) for the study of perforating gastric ulcers; however, as the method became known, it was also employed as a means of studying rat gastric secretion, Shay et al., Gastroenterology, 26, 906 (1954), Brodie, D, A. Am. J. Dig. Dis., 11, 231 (1966). A modification of this procedure is presently used to evaluate compounds for gastric antisecretory activity.
Male Long Evans rats, 280-300 gm., are used. The animals are placed in individual cages and fasted for 24 hours with free access to water. Under ether anesthesia, the stomach is reached through a midline incision, and a cotton-thread ligature is placed around the pylorus. After wound closure, ether administration is stopped and the test compound or control vehicle is administered either intraperitoneally or subcutaneously in a volume of 1 ml./kg. All compounds are solubilized with one equivalent of HCl and brought to the proper volume with water. The animals are returned to their cages from which the water bottles have been removed and two hours later are sacrificed with ether. The stomach is removed and the two hour gastric collection is drained into a graduated test tube for volume determination. Titratable acidity is measured by titrating a one ml. sample to pH 7.0 with 0.02 NaOH, using an Autoburet and electrometric pH meter (Radiometer). Titratable acid output is calculated in microequivalents by multiplying the volume in milliliters by the acid concentration in milliequivalents per liter. The percent inhibition of acid output is calculated as follows [formula] At least five rats are used at each dosage level, and a minimum of three dosage levels are utilized for determination of a dose response curve. Initially this test was conducted utilizing intraperitoneal injection of the test compound or control vehicle. […] The route of administration of each compound is noted in Table 1.

[2] = test system: gastric secretion; conditions: cited from earlier work
[3] = in vivo; cited from earlier work
[4] = clinical; cited from earlier work
[5] = test system: peptic ulcer disease; conditions: Gray et al., Lancet, 1, 8001 (1977); cited from earlier work
[6] = test system: H2 -receptor; conditions: cited from earlier work
[7] = sc, s.c. administration, two hour gastric acid output, 95% confidence limits in parenthesis, read-out: ED50

Compound	ED50 [1, 7]	further results
CNC1=NS(=O)(=O)N=C1NCCSCc1ccc(CN(C)C)o1 [11 B]	–	ED50 ([1]; ip, i.p. administration, two hour gastric acid output, 95% confidence limits in parenthesis, read-out: ED50): 0.69 µmol/kg
CN(C)Cc1ccc(CSCCNC2=NS(=O)(=O)N=C2NCCSCc2ccc(CN(C)C)o2)o1 [11 C]	0.2 µmol/kg	–
CNCc1ccc(CSCCNC2=NS(=O)(=O)N=C2NC)o1 [20 A]	1.15 µmol/kg	–
CNC1=NS(=O)(=O)N=C1NCCCOc1cccc(CN2CCCC2)c1 [144 a]	0.095 µmol/kg	–
CNC1=NS(=O)(=O)N=C1NCCCOc1cccc(CN2CCC(C)CC2)c1 [144 b]	0.025 µmol/kg	–
CNC1=NS(=O)(=O)N=C1NCCCOc1cccc(CN2CCCCCC2)c1 [144 c]	0.14 µmol/kg	–
CNC1=NS(=O)(=O)N=C1NCCCOc1cccc(CN2CCOCC2)c1 [144 d]	0.91 µmol/kg	–
Nc1n[s+]([O-])nc1NCCCOc1cccc(CN2CCCC2)c1 (stereo not shown) [145 a]	0.056 µmol/kg	–
CC1CCN(Cc2cccc(OCCCNc3n[s+]([O-])nc3N)c2)CC1 (stereo not shown) [145 b]	~0.06 µmol/kg	–
Nc1n[s+]([O-])nc1NCCCOc1cccc(CN2CCCCCC2)c1 (stereo not shown) [145 c]	0.025 µmol/kg	–
Nc1n[s+]([O-])nc1NCCCOc1cccc(CN2CCCCCCC2)c1 (stereo not shown) [145 d]	0.05 µmol/kg	–
NC1=NS(=O)(=O)N=C1NCCCOc1cccc(CN2CCCC2)c1 [146 a]	0.023 µmol/kg	–
NC1=NS(=O)(=O)N=C1NCCCOc1cccc(CN2CCOCC2)c1 [146 d]	0.28 µmol/kg	–
CNC(=S)NCCCCc1cnc[nH]1 [Burimamide]	–	inhibition of gastric secretion ([2]; animals and man): inhibits gastric secretion in animals and man; oral absorption [3]: poor
CNC(=NC#N)NCCSCc1nc[nH]c1C [Cimetidine]	–	toxicity (agranulocytosis) [4]: without producing agranulocytosis; therapeutic effect in peptic ulcer disease [5]: effective therapeutic agent in the treatment of peptic ulcer disease; ED50 [1]: ~9 µmol/kg; H2 -antagonist potency/effectiveness relative to another antagonist [6]: as effective an H2 -antagonist as metiamide
CN(C)Cc1ccc(CSCCNC2=NS(=O)(=O)N=C2N(C)C)o1 [Example 28, 3-{2-[(5-Dimethylaminomethyl-2-furyl)methylthio]ethylamino}-4-dimethylamino-1,2,5-thiadiazole 1,1-dioxide]	1.39 µmol/kg	–
CN(C)Cc1ccc(CSCCNC2=NS(=O)(=O)N=C2N2CCCCC2)o1 [Example 102, 3-{2-[(5-Dimethylaminomethyl-2-furyl)methylthio]ethylamino}-4-piperidino-1,2,5-thiadiazole 1,1-dioxide]	~15 µmol/kg	–
CCCCCCCCCCCCNC1=NS(=O)(=O)N=C1NCCSCc1ccc(CN(C)C)o1 [Example 106, 3-{2-[(5-Dimethylaminomethyl-2-furyl)methylthio]ethylamino}-4-dodecylamino-1,2,5-thiadiazole 1,1-dioxide]	~80 µmol/kg	–
CNC(=S)NCCSCc1nc[nH]c1C [Metiamide]	–	toxicity (agranulocytosis) [4]: toxicity (agranulocytosis); oral activity ([2]; in man, oral): orally active in man; H2 -antagonist potency/effectiveness relative to another antagonist [6]: more potent than burimamide
